Test results as given in ChEMBL document CHEMBL3813628, “Molecular similarity guided optimization of novel Nrf2 activators with 1,2,4-oxadiazole core” (Bioorg Med Chem, 2016).

What was measured:
[1] = Cytotoxicity against human L02 cells assessed as cell viability at 160 uM after 24 hrs by MTT assay relative to control; type: cell-based; conditions: read-out: Activity
[2] = molecular target: T1, Nuclear factor erythroid 2-related factor 2 (Homo sapiens) (UniProt Q16236); assay: Activation of Nrf2 in human HepG2 cells at 20 uM incubated for 12 hrs by ARE-driven luciferase reporter gene assay relative to control; type: cell-based
T1 sequence (whole entry): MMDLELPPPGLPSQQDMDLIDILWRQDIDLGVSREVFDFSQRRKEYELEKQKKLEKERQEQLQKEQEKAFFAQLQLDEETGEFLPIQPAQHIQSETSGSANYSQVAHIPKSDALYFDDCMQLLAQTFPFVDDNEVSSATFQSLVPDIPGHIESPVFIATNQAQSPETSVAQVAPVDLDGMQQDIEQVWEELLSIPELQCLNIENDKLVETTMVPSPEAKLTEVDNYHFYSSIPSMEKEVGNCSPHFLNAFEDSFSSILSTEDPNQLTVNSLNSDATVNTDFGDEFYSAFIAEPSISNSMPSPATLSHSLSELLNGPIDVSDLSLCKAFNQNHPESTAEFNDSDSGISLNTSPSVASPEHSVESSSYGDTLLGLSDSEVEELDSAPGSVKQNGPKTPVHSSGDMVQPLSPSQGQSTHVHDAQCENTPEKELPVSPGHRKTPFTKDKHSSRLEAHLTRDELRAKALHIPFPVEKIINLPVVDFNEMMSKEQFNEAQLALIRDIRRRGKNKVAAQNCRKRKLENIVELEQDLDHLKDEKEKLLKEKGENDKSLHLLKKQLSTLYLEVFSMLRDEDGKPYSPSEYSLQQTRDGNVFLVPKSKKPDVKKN

[3] = Cytoprotective activity against H2O2-induced cytotoxicity in rat PC12 cells assessed as cell viability pretreated at 20 uM for 24 hrs followed by H2O2 challenge for 12 hrs by MTT assay (reference value: 50%); type: functional; conditions: PC-12, read-out: Activity
[4] = molecular target: T1, Nuclear factor erythroid 2-related factor 2 (Homo sapiens); assay: Activation of Nrf2 in human HCT116 cells assessed as upregulation of NQO1 after 8 hrs by western blot analysis; type: cell-based; conditions: HCT-116
[5] = Cytotoxicity against rat PC12 cells assessed as cell viability at low to medium concentration after 24 hrs by MTT assay relative to control; type: cell-based; conditions: pc-12, 24 h
[6] = molecular target: T1, Nuclear factor erythroid 2-related factor 2 (Homo sapiens); assay: Activation of Nrf2 in human HepG2 cells at 40 uM incubated for 12 hrs by ARE-driven luciferase reporter gene assay relative to control; type: cell-based
[7] = Cytotoxicity against human HCT116 cells assessed as cell viability after 24 hrs by MTT assay; type: cell-based; conditions: hct-116, 24 h
[8] = molecular target: T1, Nuclear factor erythroid 2-related factor 2 (Homo sapiens); assay: Activation of Nrf2 in human HepG2 cells at 80 uM incubated for 12 hrs by ARE-driven luciferase reporter gene assay relative to control; type: cell-based
[9] = molecular target: T1, Nuclear factor erythroid 2-related factor 2 (Homo sapiens); assay: Activation of Nrf2 in human HepG2 cells at 5 uM incubated for 12 hrs by ARE-driven luciferase reporter gene assay relative to control; type: cell-based
[10] = molecular target: T1, Nuclear factor erythroid 2-related factor 2 (Homo sapiens); assay: Activation of Nrf2 in human HepG2 cells at 0.02 uM incubated for 12 hrs by ARE-driven luciferase reporter gene assay relative to control; type: cell-based
[11] = Cytotoxicity against human L02 cells assessed as cell viability at 20 uM after 24 hrs by MTT assay relative to control; type: cell-based; conditions: l02, 24 h
[12] = molecular target: T1, Nuclear factor erythroid 2-related factor 2 (Homo sapiens); assay: Activation of Nrf2 in human HepG2 cells incubated for 12 hrs by ARE-driven luciferase reporter gene assay relative to control; type: cell-based
[13] = Cytotoxicity against rat PC12 cells assessed as cell viability at 160 uM after 24 hrs by MTT assay relative to control; type: cell-based, PC-12; conditions: read-out: Activity
[14] = molecular target: T1, Nuclear factor erythroid 2-related factor 2 (Homo sapiens); assay: Activation of Nrf2 in human HepG2 cells at 160 uM incubated for 12 hrs by ARE-driven luciferase reporter gene assay relative to control; type: cell-based
[15] = Cytotoxicity against rat PC12 cells assessed as cell viability at 20 uM after 24 hrs by MTT assay relative to control; type: cell-based; conditions: pc-12, 24 h
[16] = molecular target: T1, Nuclear factor erythroid 2-related factor 2 (Homo sapiens); assay: Induction of Nrf2 translocation into nucleus in human NCM460 cells after 12 hrs by DAPI staining-based laser scanning confocal microscopic analysis; type: cell-based
[17] = Cytotoxicity against human NCM460 cells assessed as cell viability at 20 uM after 24 hrs by MTT assay relative to control; type: cell-based; conditions: ncm460, 24 h
[18] = Cytoprotective activity against H2O2-induced cytotoxicity in human L02 cells assessed as cell viability pretreated at 20 uM for 24 hrs followed by H2O2 challenge for 12 hrs by MTT assay (reference value: 50%); type: functional; conditions: read-out: Activity
[19] = molecular target: T1, Nuclear factor erythroid 2-related factor 2 (Homo sapiens); assay: Induction of Nrf2 translocation into nucleus in human L02 cells after 12 hrs by DAPI staining-based laser scanning confocal microscopic analysis; type: cell-based
[20] = molecular target: T1, Nuclear factor erythroid 2-related factor 2 (Homo sapiens); assay: Induction of Nrf2 translocation from cytoplasm to nucleus in human HCT116 cells at 20 uM by western blot analysis; type: cell-based; conditions: HCT-116, TDE = time-dependent effect
[21] = molecular target: T1, Nuclear factor erythroid 2-related factor 2 (Homo sapiens); assay: Activation of Nrf2 in human HCT116 cells assessed as upregulation of HO-1 after 8 hrs by western blot analysis; type: cell-based; conditions: HCT-116
[22] = molecular target: T1, Nuclear factor erythroid 2-related factor 2 (Homo sapiens); assay: Activation of Nrf2 in human HepG2 cells at 0.2 uM incubated for 12 hrs by ARE-driven luciferase reporter gene assay relative to control; type: cell-based
[23] = Cytotoxicity against human L02 cells assessed as cell viability at low to medium concentration after 24 hrs by MTT assay relative to control; type: cell-based; conditions: l02, 24 h
[24] = Cytotoxicity against human NCM460 cells assessed as cell viability at 160 uM after 24 hrs by MTT assay relative to control; type: cell-based; conditions: read-out: Activity
[25] = molecular target: T1, Nuclear factor erythroid 2-related factor 2 (Homo sapiens); assay: Activation of Nrf2 expression in human HCT116 cells after 8 hrs by western blot analysis; type: cell-based; conditions: HCT-116
[26] = Cytoprotective activity against H2O2-induced cytotoxicity in human NCM460 cells assessed as cell viability pretreated at 20 uM for 24 hrs followed by H2O2 challenge for 12 hrs by MTT assay (reference value: 50%); type: functional; conditions: read-out: Activity
[27] = molecular target: T2, Nuclear factor erythroid 2-related factor 2 (Rattus norvegicus) (UniProt O54968); assay: Induction of Nrf2 translocation into nucleus in rat PC12 cells after 12 hrs by DAPI staining-based laser scanning confocal microscopic analysis; type: cell-based; conditions: PC-12
T2 sequence (whole entry): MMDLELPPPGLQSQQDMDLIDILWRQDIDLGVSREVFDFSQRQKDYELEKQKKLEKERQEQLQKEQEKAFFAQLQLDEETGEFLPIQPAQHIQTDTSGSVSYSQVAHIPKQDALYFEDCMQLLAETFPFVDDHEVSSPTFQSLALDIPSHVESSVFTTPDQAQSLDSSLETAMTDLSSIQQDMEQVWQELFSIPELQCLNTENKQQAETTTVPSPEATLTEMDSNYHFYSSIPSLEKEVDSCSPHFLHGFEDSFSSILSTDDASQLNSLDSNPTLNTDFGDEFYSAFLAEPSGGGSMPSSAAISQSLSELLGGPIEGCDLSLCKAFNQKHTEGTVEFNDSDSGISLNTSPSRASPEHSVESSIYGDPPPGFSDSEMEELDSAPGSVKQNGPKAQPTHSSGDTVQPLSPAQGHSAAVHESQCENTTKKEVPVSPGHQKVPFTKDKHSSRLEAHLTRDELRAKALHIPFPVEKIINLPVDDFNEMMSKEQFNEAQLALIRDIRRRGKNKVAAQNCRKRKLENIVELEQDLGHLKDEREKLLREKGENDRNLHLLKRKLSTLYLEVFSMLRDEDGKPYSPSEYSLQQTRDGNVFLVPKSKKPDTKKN

[28] = molecular target: T1, Nuclear factor erythroid 2-related factor 2 (Homo sapiens); assay: Activation of Nrf2 in human HCT116 cells assessed as upregulation of gamma-GCS after 8 hrs by western blot analysis; type: cell-based; conditions: HCT-116
[29] = molecular target: T1, Nuclear factor erythroid 2-related factor 2 (Homo sapiens); assay: Activation of Nrf2 in human HepG2 cells at 2 uM incubated for 12 hrs by ARE-driven luciferase reporter gene assay relative to control; type: cell-based
[30] = Cytotoxicity against human NCM460 cells assessed as cell viability at low to medium concentration after 24 hrs by MTT assay relative to control; type: cell-based; conditions: ncm460, 24 h

SMILES: Cc1nc2cc(-c3noc(-c4cnccn4)n3)ccc2o1
- viability at 24 h, 160 µM [1]: 80%
- fold change (FC) [2]: 9.57
- viability at 20 µM [3]: 80%
- Activity [4]: Dose-dependent effect
- Activity [5]: Non-toxic
- fold change (FC) [6]: 15.5
- Activity [7]: Non-toxic
- fold change (FC) [8]: 17.1
- fold change (FC) [9]: 6.85
- fold change (FC) [10]: 3.42
- Activity [11]: Non-toxic
- Activity [12]: Dose-dependent effect
- viability at 24 h, 160 µM [13]: 80%
- fold change (FC) [14]: 15.3
- Activity [15]: Non-toxic
- Activity [16]: Dose-dependent effect
- Activity [17]: Non-toxic
- viability at 20 µM [18]: 85%
- Activity [19]: Dose-dependent effect
- Activity [20]: tde
- Activity [21]: Dose-dependent effect
- fold change (FC) [22]: 4.98
- Activity [23]: Non-toxic
- viability at 24 h, 160 µM [24]: 80%
- Activity [25]: Dose-dependent effect
- viability at 20 µM [26]: 90%
- Activity [27]: Dose-dependent effect
- Activity [28]: Dose-dependent effect
- fold change (FC) [29]: 4.67
- Activity [30]: Non-toxic
